The text below walks through data of patent US9321742B2, “N1-cyclic amine-N5-substituted biguanide derivatives, methods of preparing the same and pharmaceutical composition comprising the same” (IMMUNOMET THERAPEUTICS INC., priority 2011, dated 2016).

The inhibition is how much of the control response was suppressed. What is called GI50 is the concentration that inhibits growth by half. Low readings indicate more potent growth inhibition, high ones less potent growth inhibition. What is called melting point is the temperature, or range, at which the solid turns liquid.

One data set deals with AMPKα. Put plainly: Measurement of AMPK-activation effect (AMPKα Thr172 phosphorylation immunoassay in MCF7 cells). The following applies: 24 hours; for AMPK activation effect 10 uM (%) / AMPK activation effect 50 uM (%): relative to untreated cells. The format is cell-based, human. Here is the method: MCF7 cells derived from human breast cancer cells (commercially available from the Korean Cell Line Bank) were used, and the AMPK (5′-AMP-activated protein kinase alpha)-activation effect of the biguanide derivative was confirmed using an AMPKα immunoassay kit (Invitrogen, Catalog No. KH00651).
MCF7 cells were cultured in a DMEM medium supplemented with 10% fetal bovine serum. Thereafter, the cultured MCF7 cells were put into a 6-well plate with approximately 5×10^5 cells per well and cultured in an incubator supplied with 5% CO2. Culture media were treated with the derivatives synthesized in the examples at contents of 5, 10 and 50 μM, and then cultured for 24 hours. Metformin hydrochloride was used as the control, and the culture media were treated with 0.05, 0.5, 1, 2, 5 and 10 mM metformin hydrochloride, and then tested in the same manner as described in the derivatives synthesized in the examples. Subsequently, the cells were lysed according to a method presented in the operation manual of the AMPKα immunoassay kit, and 20 μg of a cell lysate was then yielded through protein assay. Thereafter, the AMPK activation effect was obtained by determining the degree of phosphorylation of 172nd threonine residue (Thr172) of the AMPKα from the cell lysate according to the method presented in the operation manual of the AMPKα immunoassay kit. […] A curve graph showing AMPK activation according to the concentration of the treated compounds was plotted based on the obtained AMPKα activation results, the concentration (activation concentration 150, AC150) value of the compound whose AMPK activation reached 150% was calculated using a GraphPad Prism 5.0 program, and the degrees of AMPK activation were obtained when concentrations of the treated biguanide derivatives were 10 μM and 50 μM and the metformin hydrochloride was 50 μM.

Another data set has as its system HCT116 cells. Put plainly: Measurement of effect of inhibiting cancer cell proliferation (MTT). Type of data set: cell-based. Particulars: Homo sapiens; for inhibition at 100 µM: HCT-116, 100 uM, 48 hours, read-out: Cell Growth Inhibition (%) at 100 uM; for GI50: HCT-116, 48 hours. The text has this: HCT116 cells derived from human colorectal cancer (commercially available from the Korean Cell Line Bank) were used, and the effect of inhibiting cancer cell proliferation of the biguanide derivative was confirmed by measuring the concentration value (cell growth inhibition concentration, GIC50) at which cell growth was inhibited by 50% using a 3-(4,5-dimethylthiazol-2-yl)-2,5-[…] bromide (MTT) reagent.
First, HCT116 cells were put on a 96-well plate and cultured in a DMEM medium containing 10% fetal bovine serum for 16 hours so that the cellcount in each well was approximately 5,000. Subsequently, to obtain the GIC50 value of each compound, culture media were treated with 100 μM, 25 μM, 6.25 μM, 1.56 μM or 0.39 μM of the compound, and then cultured for 48 hours. At this time, some of the compounds were treated with 200 μM instead of 100 μM. Metformin hydrochloride was used as the control, and the culture media were treated with 25, 12.5, 2.5, 0.5, 0.1 mM metformin hydrochloride, and then tested in the same manner as described in the derivatives synthesized in the examples. In order to determine whether the cells survived after treatment with the compound, MTT was added to the culture media which were then cultured for another 3 hours. Formed formazane crystals were dissolved using dimethyl sulfoxide (DMSO), and the absorbance of the resulting solution was measured at 560 nm. After the 48-hours culture, the ratio of the cell count cultured on a well plate not treated with the compound to the living cell count on a well plate treated with the compounds synthesized in the examples was indicated as cell viability (%) according to each treated concentration. A cell viability curve graph was plotted and the concentration (GIC50) value of the compound at which the growth was inhibited by 50% was calculated to confirm the effect of inhibition of cancer cell proliferation. Also, the cell growth viability (%) when the concentration of the treated biguanide derivative and the metformin hydrochloride as the control were 100 uM was shown.

Some results are limits rather than exact numbers.

`Cl.N=C(NCc1ccco1)NC(=N)N1CCCCC1` [Example 23, N1-piperidine-N5-(furan-2-ylmethyl)biguanide hydrochloride]: the melting point lay within 251 to 252 °C. For the same molecule, in the data set with AMPKα, the “AMPK activation effect 10 uM (%)” value is 112%, the “AMPK activation effect 50 uM (%)” value came out at 298% and the “AC150 (concentration at which AMPK activation reached 150%)” value is 15.8 µM. In the data set on HCT116 cells, the inhibition at 100 µM came to 39.5% and the concentration for 50% growth inhibition (GI50) was greater than 100 µM.
`Cl.N=C(NCc1cccs1)NC(=N)N1CCCCC1` [Example 24, N1-piperidine-N5-(thiophene-2-ylmethyl)biguanide hydrochloride] returned a melting point of 220 to 221 °C. Besides, in the data set on AMPKα, the “AMPK activation effect 10 uM (%)” value is recorded as 64%, the “AMPK activation effect 50 uM (%)” value came to 112% and the “AC150 (concentration at which AMPK activation reached 150%)” value was greater than 50 µM. In the data set on HCT116 cells, the inhibition at 100 µM was determined as 51.7% and it took 93.2 µM to inhibit growth by half (GI50).
Molecule `Cc1ccc(CNC(=N)NC(=N)N2CCCCC2)cc1.Cl` [Example 27, N1-piperidine-N5-(4-methyl)benzyl biguanide hydrochloride] displayed a melting point of 241 to 243 °C. Moreover, in the data set on AMPKα, the “AMPK activation effect 10 uM (%)” value was 435%, the “AMPK activation effect 50 uM (%)” value is 947% and the “AC150 (concentration at which AMPK activation reached 150%)” value came out at 2.3 µM. For the same molecule, in the data set with HCT116 cells, the inhibition at 100 µM stood at 64.9% and halving of growth (GI50) required 70.5 µM.
Regarding `COc1ccc(CNC(=N)NC(=N)N2CCCCC2)cc1.Cl` [Example 28, N1-piperidine-N5-(4-methoxy)benzyl biguanide hydrochloride], the melting point lay in the range of 213 to 214 °C. In addition, in the data set with AMPKα, the “AMPK activation effect 10 uM (%)” value was determined as 258%, the “AMPK activation effect 50 uM (%)” value is recorded as 628% and the “AC150 (concentration at which AMPK activation reached 150%)” value amounted to 3.9 µM. Further, in the data set on HCT116 cells, the inhibition at 100 µM stood at 28.3% and the GI50 is greater than 100 µM.
On to `Cl.N=C(NCc1ccc(F)cc1)NC(=N)N1CCCCC1` [Example 30, N1-piperidine-N5-(4-fluoro)benzyl biguanide hydrochloride], for which the melting point lay within 250 to 251 °C. In the data set on AMPKα, the “AMPK activation effect 10 uM (%)” value was determined as 143%, the “AMPK activation effect 50 uM (%)” value is given as 278% and the “AC150 (concentration at which AMPK activation reached 150%)” value is 13.1 µM. Also, in the data set with HCT116 cells, the inhibition at 100 µM stood at 47% and the GI50 was greater than 100 µM.
`Cl.N=C(NCc1ccc(Cl)cc1)NC(=N)N1CCCC1` [Example 31, N1-pyrrolidine-N5-(4-chloro)benzyl biguanide hydrochloride] yielded a melting point of 250 to 251 °C. Besides, in the data set with AMPKα, the “AMPK activation effect 10 uM (%)” value is 304%, the “AMPK activation effect 50 uM (%)” value is listed as 776% and the “AC150 (concentration at which AMPK activation reached 150%)” value amounted to 2.3 µM. Further, in the data set with HCT116 cells, the inhibition at 100 µM stood at 65.9% and the 50% growth inhibitory concentration (GI50) amounted to 17.6 µM.
Consider `Cl.N=C(NCc1ccc(Cl)cc1)NC(=N)N1CCCCCC1` [Example 33, N1-azepane-N5-(4-chloro)benzyl biguanide hydrochloride], for which the melting point lay within 222 to 223 °C. Also, in the data set with AMPKα, the “AMPK activation effect 50 uM (%)” value was determined as 443% and the “AC150 (concentration at which AMPK activation reached 150%)” value was found to be 1.2 µM. Also, in the data set on HCT116 cells, the inhibition at 100 µM amounted to 25.3% and growth was halved (GI50) at 4.9 µM.
`Cl.N=C(NCc1ccc(Br)cc1)NC(=N)N1CCCC1` [Example 34, N1-pyrrolidine-N5-(4-bromo)benzyl biguanide hydrochloride] had a melting point of 267 to 268 °C. In the data set on AMPKα, the “AMPK activation effect 10 uM (%)” value is recorded as 467%, the “AMPK activation effect 50 uM (%)” value is given as 639% and the “AC150 (concentration at which AMPK activation reached 150%)” value worked out at 42.4 µM. Moreover, in the data set on HCT116 cells, the inhibition at 100 µM is 97.3% and it took 92.8 µM to inhibit growth by half (GI50).
For the molecule `Cl.N=C(NCc1ccc(Br)cc1)NC(=N)N1CCCCC1` [Example 35, N1-piperidine-N5-(4-bromo)benzyl biguanide hydrochloride], the melting point was in the range of 261 to 262 °C. In the data set with AMPKα, the “AMPK activation effect 10 uM (%)” value is given as 140%, the “AMPK activation effect 50 uM (%)” value turned out to be 150% and the “AC150 (concentration at which AMPK activation reached 150%)” value was determined as 1.1 µM. In the data set with HCT116 cells, the inhibition at 100 µM is 53.8% and it took 23.2 µM to inhibit growth by half (GI50).
The molecule `Cl.N=C(NCc1cccc(C(F)(F)F)c1)NC(=N)N1CCOCC1` [Example 36, N1-morpholine-N5-(3-trifluoromethyl)benzyl biguanide hydrochloride] displayed a melting point of 211 to 212 °C. Also, in the data set on AMPKα, the “AMPK activation effect 10 uM (%)” value is on record as 516%, the “AMPK activation effect 50 uM (%)” value is given as 656% and the “AC150 (concentration at which AMPK activation reached 150%)” value was greater than 50 µM. In addition, in the data set with HCT116 cells, the inhibition at 100 µM amounted to 97.2% and the 50% growth inhibitory concentration (GI50) was greater than 100 µM.
`Cl.N=C(NCc1ccc(C(F)(F)F)cc1)NC(=N)N1CCC1` [Example 37, N1-azetidine-N5-(4-trifluoromethyl)benzyl biguanide hydrochloride] came in with a melting point of 260 to 261 °C. Besides, in the data set with AMPKα, the “AMPK activation effect 10 uM (%)” value is 100%, the “AMPK activation effect 50 uM (%)” value came to 107% and the “AC150 (concentration at which AMPK activation reached 150%)” value was determined as 24.2 µM. Further, in the data set on HCT116 cells, the inhibition at 100 µM worked out at 23.5% and the 50% growth inhibitory concentration (GI50) was determined as 39.3 µM.
`Cl.N=C(NCc1ccc(C(F)(F)F)cc1)NC(=N)N1CCCC1` [Example 38, N1-pyrrolidine-N5-(4-trifluoromethyl)benzyl biguanide hydrochloride] showed a melting point of 268 to 270 °C. Moreover, in the data set on AMPKα, the “AMPK activation effect 10 uM (%)” value is reported as 116%, the “AMPK activation effect 50 uM (%)” value is given as 213% and the “AC150 (concentration at which AMPK activation reached 150%)” value came to 1.4 µM. In the data set on HCT116 cells, the inhibition at 100 µM came out at 61.6% and the GI50 worked out at 32.4 µM.
`Cl.N=C(NCc1ccc(OC(F)(F)F)cc1)NC(=N)N1CCC1` [Example 40, N1-azetidine-N5-(4-trifluoromethoxy)benzyl biguanide hydrochloride] showed a melting point of 182 to 184 °C. For the same molecule, in the data set with AMPKα, the “AMPK activation effect 10 uM (%)” value is 673%, the “AMPK activation effect 50 uM (%)” value stood at 1076% and the “AC150 (concentration at which AMPK activation reached 150%)” value stood at 3.9 µM. For the same molecule, in the data set on HCT116 cells, the inhibition at 100 µM came to 97.8% and growth was halved (GI50) at 36.9 µM.
As to `Cl.N=C(NCc1ccc(OC(F)(F)F)cc1)NC(=N)N1CCCC1` [Example 41, N1-pyrrolidine-N5-(4-trifluoromethoxy)benzyl biguanide hydrochloride], the melting point was 242 to 243 °C. Besides, in the data set on AMPKα, the “AMPK activation effect 10 uM (%)” value came to 242%, the “AMPK activation effect 50 uM (%)” value is on record as 698% and the “AC150 (concentration at which AMPK activation reached 150%)” value turned out to be 0.9 µM. In the data set with HCT116 cells, the inhibition at 100 µM amounted to 97.4% and the GI50 was 25.6 µM.
With `Cl.N=C(NCc1ccc(OC(F)(F)F)cc1)NC(=N)N1CCCCC1` [Example 42, N1-piperidine-N5-(4-trifluoromethoxy)benzyl biguanide hydrochloride], the melting point is 268 to 269 °C. Also, in the data set on AMPKα, the “AMPK activation effect 10 uM (%)” value is 472%, the “AMPK activation effect 50 uM (%)” value amounted to 554% and the “AC150 (concentration at which AMPK activation reached 150%)” value came to 0.8 µM. Also, in the data set with HCT116 cells, the inhibition at 100 µM came to 96.8% and the GI50 stood at 16.2 µM.
In the case of `Cl.N=C(NCc1ccc(F)c(C(F)(F)F)c1)NC(=N)N1CCCCC1` [Example 44, N1-piperidine-N5-(4-fluoro-3-trifluoromethyl)benzyl biguanide hydrochloride], the melting point is 232 to 235 °C. Also, in the data set with AMPKα, the “AMPK activation effect 10 uM (%)” value turned out to be 180%, the “AMPK activation effect 50 uM (%)” value was 383% and the “AC150 (concentration at which AMPK activation reached 150%)” value came out at 10.3 µM. Moreover, in the data set with HCT116 cells, the inhibition at 100 µM was determined as 32.6% and the 50% growth inhibitory concentration (GI50) is 15.2 µM.
